Tests used:
[1] = Cytotoxicity against human MT4 cells expressing CD4 and CXCR4; type: cell-based
[2] = system: Human immunodeficiency virus 1; assay: Antiviral activity against X4 tropic HIV1 NL4.3 infected in human MT4 cells expressing CD4 and CXCR4 assessed as inhibition of virus-induced cytopathicity; type: functional, organism-based; settings: Human immunodeficiency virus 1, NL4.3, MT4
[3] = biological target: T1, C-X-C chemokine receptor type 4 (Homo sapiens, UniProt P61073); assay: Antagonist activity at CXCR4 in human CEM-CCRF cells expressing CD4 assessed as inhibition of SDF-1-induced Ca2+ signaling; type: functional, cell-based
T1 sequence (P61073 whole entry): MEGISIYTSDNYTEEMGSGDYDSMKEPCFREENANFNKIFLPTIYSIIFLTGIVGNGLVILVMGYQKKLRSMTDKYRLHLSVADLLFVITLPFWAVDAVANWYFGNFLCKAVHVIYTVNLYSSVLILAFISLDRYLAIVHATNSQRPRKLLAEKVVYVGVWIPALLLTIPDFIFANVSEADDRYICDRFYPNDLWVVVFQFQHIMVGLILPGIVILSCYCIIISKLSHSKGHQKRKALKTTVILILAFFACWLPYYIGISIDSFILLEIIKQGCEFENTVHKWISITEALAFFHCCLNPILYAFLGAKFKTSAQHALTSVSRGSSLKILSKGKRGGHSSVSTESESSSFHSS

[4] = (§1) AUC (0 to infinity) in rat at 10 umol/kg, iv; type: ADME, organism-based, Plasma; set-up: dose 10 umol/kg, time infinity, route intravenous; settings: plasma, 10 umol/kg
[5] = Cmax in dog at 5 umol/kg, iv; type: ADME, organism-based, Canis lupus familiaris; set-up: dose 5 umol/kg, route intravenous; settings: in vivo
[6] = system: Human immunodeficiency virus 1; assay: Antiviral activity against X4 tropic HIV1 infected in human PBMC assessed as inhibition of virus-induced cytopathicity in presence of 1 mg/mL of alpha-acid glycoprotein; type: functional
[7] = system: Human immunodeficiency virus 1; assay: Antiviral activity against X4 tropic HIV1 infected in human PBMC assessed as inhibition of virus-induced cytopathicity; type: functional, organism-based
[8] = Oral bioavailability in dog at 12.5 umol/kg; type: ADME, organism-based, Canis lupus familiaris; settings: in vivo
[9] = Clearance in rat at 10 umol/kg, iv; type: ADME, organism-based; settings: in vivo
[10] = Half life in dog at 5 umol/kg, iv; type: ADME, organism-based, Canis lupus familiaris; settings: in vivo
[11] = (§2) Half life in rat at 10 umol/kg, iv; type: ADME, organism-based; settings: in vivo, 10 umol/kg
[12] = biological target: T1, C-X-C chemokine receptor type 4; assay: Displacement of [125I]SDF-1 from CXCR4 in human CEM-CCRF cells expressing CD4 by liquid scintillation counting; type: cell-based
[13] = (§3) Cmax in rat at 10 umol/kg, iv; type: ADME, organism-based; set-up: dose 10 umol/kg, route intravenous; settings: in vivo, 10 umol/kg
[14] = Clearance in dog at 5 umol/kg, iv; type: ADME, organism-based, Canis lupus familiaris; settings: in vivo
[15] = Oral bioavailability in rat at 100 umol/kg; type: ADME, organism-based; settings: in vivo
[16] = Volume of distribution in dog at 5 umol/kg, iv; type: ADME, organism-based, Canis lupus familiaris; settings: in vivo
[17] = (§4) AUC (0 to infinity) in dog at 5 umol/kg, iv; type: ADME, organism-based, Canis lupus familiaris, Plasma; set-up: dose 5 umol/kg, time infinity, route intravenous; settings: plasma, 5 umol/kg
[18] = Volume of distribution in rat at 10 umol/kg, iv; type: ADME, organism-based; settings: in vivo
Rattus norvegicus [19] = assay: as §1; type: ADME, organism-based, Plasma; set-up: dose 10 umol/kg, time infinity, route intravenous; settings: in vivo
Rattus norvegicus [20] = assay: as §2; type: ADME, organism-based; settings: in vivo
Rattus norvegicus [21] = assay: as §3; type: ADME, organism-based; set-up: dose 10 umol/kg, route intravenous; settings: in vivo
Canis familiaris = assay: as §4; type: ADME, organism-based, Canis lupus familiaris, Plasma; set-up: dose 5 umol/kg, time infinity, route intravenous; settings: in vivo

IC50 [2]	IC50 [3]	SMILES	CC50 [1]	also measured
> 1.23 µM		NCc1nccnc1CN(Cc1nc2ccccc2[nH]1)C1CCCc2cccnc21 (configuration not stated)	6.1 µM	
0.021 µM	0.021 µM	NCc1ncccc1CN(Cc1nc2ccccc2[nH]1)C1CCCc2cccnc21 (configuration not stated)	150 µM	
0.012 µM	0.015 µM	NCc1cc(C(N)=O)ccc1CN(Cc1nc2ccccc2[nH]1)C1CCCc2cccnc21 (configuration not stated)	120 µM	
2.83 µM		NCc1ocnc1CN(Cc1nc2ccccc2[nH]1)C1CCCc2cccnc21 (configuration not stated)	32.9 µM	
0.124 µM	0.16 µM	NCc1ccncc1CN(Cc1nc2ccccc2[nH]1)C1CCCc2cccnc21 (configuration not stated)	128 µM	
0.0072 µM	0.0013 µM	NCc1ncoc1CN(Cc1nc2ccccc2[nH]1)C1CCCc2cccnc21 (configuration not stated)	64.5 µM	
0.00031 µM		NCc1cocc1N(Cc1nc2ccccc2[nH]1)[C@H]1CCCc2cccnc21		AUC(0-inf) [4]: 12.5 µM·h; Cmax [5]: 4700 nM; fold change (FC) [6]: 17; IC50 [7]: 0.0041 µM; bioavailability [8]: 28%; clearance [9]: 23.3 mL/min/kg; half-life [10]: 2.7 h; half-life [11]: 2.1 h; IC50 [12]: 0.0445 µM; Cmax [13]: 3000 nM; clearance [14]: 3.7 mL/min/kg; bioavailability [15]: 17%; Vd [16]: 0.7 L/kg; AUC(0-inf) [17]: 16.4 µM·h; Vd [18]: 3.6 L/kg
> 1.16 µM		NCc1[nH]cnc1CN(Cc1nc2ccccc2[nH]1)C1CCCc2cccnc21 (configuration not stated)	5.8 µM	
0.105 µM	0.039 µM	COC(=O)c1ccc(CN(Cc2nc3ccccc3[nH]2)C2CCCc3cccnc32)c(CN)c1 (configuration not stated)	42.2 µM	
0.008 µM	0.021 µM	NCc1occc1CN(Cc1nc2ccccc2[nH]1)C1CCCc2cccnc21 (configuration not stated)	50 µM	
0.104 µM	0.051 µM	NCc1cc(C(F)(F)F)ccc1CN(Cc1nc2ccccc2[nH]1)C1CCCc2cccnc21 (configuration not stated)	26.6 µM	
0.0004 µM	0.012 µM	NCc1ccoc1CN(Cc1nc2ccccc2[nH]1)C1CCCc2cccnc21 (configuration not stated)	28.5 µM	
0.0042 µM		NCc1ncccc1CN(Cc1nc2ccccc2[nH]1)[C@H]1CCCc2cccnc21		AUC (Rattus norvegicus [19]): 5.4 µM·h; Cmax [5]: 4200 nM; fold change (FC) [6]: 24; IC50 [7]: 0.0099 µM; bioavailability [8]: 84%; half-life [10]: 5.7 h; t1/2 (Rattus norvegicus [20]): 0.8 h; IC50 [12]: 0.0198 µM; Cmax (Rattus norvegicus [21]): 1200 nM; bioavailability [15]: 22%; Vd [16]: 2.6 L/kg; AUC (Canis familiaris): 13.5 µM·h; Vd [18]: 6.6 L/kg
0.103 µM	0.013 µM	NCc1cscc1N(Cc1nc2ccccc2[nH]1)C1CCCc2cccnc21 (configuration not stated)	32.9 µM	
0.002 µM	0.01 µM	NCc1ccc(CN(Cc2nc3ccccc3[nH]2)C2CCCc3cccnc32)c(CN)c1 (configuration not stated)	122 µM	
0.0109 µM	0.025 µM	NCc1cocc1N(Cc1nc2ccccc2[nH]1)C1CCCc2cccnc21 (configuration not stated)	30.2 µM	
0.022 µM	0.005 µM	CO/N=C/c1ccc(CN(Cc2nc3ccccc3[nH]2)C2CCCc3cccnc32)c(CN)c1 (configuration not stated)	26.8 µM	
2.48 µM		NCc1ccc(CN(Cc2nc3ccccc3[nH]2)C2CCCc3cccnc32)s1 (configuration not stated)	28.5 µM	
0.00099 µM		NCc1cscc1N(Cc1nc2ccccc2[nH]1)[C@H]1CCCc2cccnc21		AUC(0-inf) [4]: 3.7 µM·h; Cmax [5]: 2600 nM; fold change (FC) [6]: 28; IC50 [7]: 0.002 µM; bioavailability [8]: 9%; clearance [9]: 27.2 mL/min/kg; half-life [10]: 3.4 h; half-life [11]: 1.7 h; IC50 [12]: 0.0889 µM; Cmax [13]: 1400 nM; bioavailability [15]: 6%; Vd [16]: 2.2 L/kg; AUC (Canis familiaris): 3.7 µM·h; Vd [18]: 5.2 L/kg
0.014 µM	0.06 µM	NCc1sccc1CN(Cc1nc2ccccc2[nH]1)C1CCCc2cccnc21 (configuration not stated)	31.5 µM	
0.018 µM	0.005 µM	COc1ccc(CN(Cc2nc3ccccc3[nH]2)C2CCCc3cccnc32)c(CN)c1 (configuration not stated)	36.5 µM	
0.017 µM	0.011 µM	NCc1cc(CO)ccc1CN(Cc1nc2ccccc2[nH]1)C1CCCc2cccnc21 (configuration not stated)	37.5 µM	
0.069 µM	0.126 µM	NCc1cc(C(=O)O)ccc1CN(Cc1nc2ccccc2[nH]1)C1CCCc2cccnc21 (configuration not stated)	137 µM	
3.57 µM		NCc1ccc(CN(Cc2nc3ccccc3[nH]2)C2CCCc3cccnc32)o1 (configuration not stated)	28.5 µM	
20.1 µM		NCc1nc(CN(Cc2nc3ccccc3[nH]2)C2CCCc3cccnc32)co1 (configuration not stated)	28.5 µM	
0.165 µM	0.219 µM	NCc1cc(F)ccc1CN(Cc1nc2ccccc2[nH]1)C1CCCc2cccnc21 (configuration not stated)	45.6 µM	
	0.028 µM	NCc1ccccc1CN(Cc1nc2ccccc2[nH]1)C1CCCc2cccnc21 (configuration not stated)		
0.02 µM	0.021 µM	COCc1ccc(CN(Cc2nc3ccccc3[nH]2)C2CCCc3cccnc32)c(CN)c1 (configuration not stated)	201 µM	
